In patent US12162893B2 (Erasca, Inc., priority 2020, dated 2024):

Each molecule was assayed against T1, mutant G12C K-RAS (Homo sapiens, UniProt P01116, G12C) (assay: covalent adduct formation (CAF) with mutant G12C K-RAS). Details: Table 3, Pyridone Core-Morpholine Unsubstituted; after 60 minutes at 10 micromolar.
T1 construct: made in house; host or cells: E. coli BL21
Format: binding
Parameters: CAF: unit not given here
Method: Embodiments disclosed herein are further illustrated by the following examples in Tables 1-4 and the Examples hereinbelow. The Tables indicate the compound number, structure, the observed mass spectral molecular weight peak, and covalent adduct formation (CAF) with a mutant G12C K-RAS after 60 minutes at a concentration of 10 micromolar.

| Structure (SMILES) | CAF |
| --- | --- |
| C=CC(=O)N1C[C@H](C)N(c2cc(=O)n3c4c(c(-c5ccc(F)cc5F)c(Cl)cc24)OCC3)C[C@H]1C [Example 44, 7-((2S,5R)-4-acryloyl-2,5-dimethylpiperazin-1-yl)-9-chloro-10-(2,4-difluorophenyl)-2H-[1,4]oxazino[2,3,4-ij]quinolin-5(3H)-one] | 4.2 |

Same assay, conditions: Table 6; 10 μM, 1 h

| Structure (SMILES) | % CAF @ 10 μM,1 h [%] |
| --- | --- |
| C=CC(=O)N1C[C@H](C)N(c2nc(=O)n3c4c(c(-c5ccc(F)cc5F)c(Cl)cc24)OC[C@H]3COC2CCN(C)CC2)C[C@H]1C [Example 297, (3R)-7-((2S,5R)-4-acryloyl-2,5-dimethylpiperazin-1-yl)-9-chloro-10-(2,4-difluorophenyl)-3-(((1-methylpiperidin-4-yl)oxy)methyl)-2H-[1,4]oxazino[2,3,4-ij]quinazolin-5(3H)-one] | 90.5 |
| C=CC(=O)N1C[C@H](C)N(c2nc(=O)n3c4c(c(-c5c(F)ccc6cc[nH]c(=O)c56)ccc24)OCC3)C[C@H]1C [Example 224, 7-((2S,5R)-4-acryloyl-2,5-dimethylpiperazin-1-yl)-10-(7-fluoro-1-oxo-1,2-dihydroisoquinolin-8-yl)-2,3-dihydro-5H-[1,4]oxazino[2,3,4-ij]quinazolin-5-one] | 0 |
| C=CC(=O)N1C[C@H](C)N(c2nc(=O)n3c4c(c(-c5ccc(F)cc5F)c(Cl)cc24)OC[C@H]3CCCN2C3CCC2CN(C)C3)C[C@H]1C [Example 311, (3R)-7-((2S,5R)-4-acryloyl-2,5-dimethylpiperazin-1-yl)-9-chloro-10-(2,4-difluorophenyl)-3-(3-(3-methyl-3,8-diazabicyclo[3.2.1]octan-8-yl)propyl)-2,3-dihydro-5H-[1,4]oxazino[2,3,4-ij]quinazolin-5-one] | 64.1 |
| C=CC(=O)N1C[C@H](C)N(c2nc(=O)n3c4c(c(-c5ccc(F)cc5F)c(Cl)cc24)OC[C@@H]3CN(C)CC(F)(F)F)C[C@H]1C [Example 237, (3S)-7-((2S,5R)-4-acryloyl-2,5-dimethylpiperazin-1-yl)-9-chloro-10-(2,4-difluorophenyl)-3-((methyl(2,2,2-trifluoroethyl)amino)methyl)-2H-[1,4]oxazino[2,3,4-ij]quinazolin-5(3H)-one] | 78.5 |
| C=CC(=O)N1C[C@H](C)N(c2nc(=O)n3c4c(c(-c5ccc(F)cc5F)c(Cl)cc24)OC[C@H]3CCCN2CC(C(=O)NC3CC3)C2)C[C@H]1C [Example 273, 1-(3-((3R)-7-((2S,5R)-4-acryloyl-2,5-dimethylpiperazin-1-yl)-9-chloro-10-(2,4-difluorophenyl)-5-oxo-2,3-dihydro-5H-[1,4]oxazino[2,3,4-ij]quinazolin-3-yl)propyl)-N-cyclopropylazetidine-3-carboxamide] | 71.8 |
| C=CC(=O)N1C2CC(=O)CC1CN(c1nc(=O)n3c4c(c(-c5ccc(F)cc5F)c(C(F)(F)F)cc14)OCC3)C2 [Example 337, 7-(9-acryloyl-7-oxo-3,9-diazabicyclo[3.3.1]nonan-3-yl)-10-(2,4-difluorophenyl)-9-(trifluoromethyl)-2,3-dihydro-5H-[1,4]oxazino[2,3,4-ij]quinazolin-5-one] | 95.9 |

The next lines start with the values.

| % CAF @ 10 μM,1 h [%] | Structure (SMILES) |
| --- | --- |
| 87 | C=CC(=O)N1C[C@H](C)N(c2nc(=O)n3c4c(c(-c5ccc(F)cc5F)c(Cl)cc24)OC[C@H]3CC2CCN(CC(F)F)CC2)C[C@H]1C [Example 328, (3R)-7-((2S,5R)-4-acryloyl-2,5-dimethylpiperazin-1-yl)-9-chloro-3-((1-(2,2-difluoroethyl)piperidin-4-yl)methyl)-10-(2,4-difluorophenyl)-2H-[1,4]oxazino[2,3,4-ij]quinazolin-5(3H)-one] |
| 34.2 | C=CC(=O)N1C[C@H](C)N(c2nc(=O)n3c4c(c(-c5ccc(F)cc5F)c(Cl)cc24)OC[C@@H]3CN2CCC(F)(F)C2)C[C@H]1C (stereo in doubt) [Example 202] |
| 70.9 | C=CC(=O)N1C[C@H](C)N(c2nc(=O)n3c4c(c(-c5c(O)cccc5F)c(Cl)cc24)OC[C@@H]3CN2CCC(F)(F)C2)C[C@H]1C [Example 221, (3S,10S)-7-((2S,5R)-4-acryloyl-2,5-dimethylpiperazin-1-yl)-9-chloro-3-((3,3-difluoropyrrolidin-1-yl)methyl)-10-(2-fluoro-6-hydroxyphenyl)-2,3-dihydro-5H-[1,4]oxazino[2,3,4-ij]quinazolin-5-one] |
| 63.4 | C=CC(=O)N1C[C@H](C)N(c2nc(=O)n3c4c(c(-c5ccc(F)cc5F)c(Cl)cc24)OC[C@@H]3CC2CCN(C)CC2)C[C@H]1C [Example 324, (3S)-7-((2S,5R)-4-acryloyl-2,5-dimethylpiperazin-1-yl)-9-chloro-10-(2,4-difluorophenyl)-3-((1-methylpiperidin-4-yl)methyl)-2H-[1,4]oxazino[2,3,4-ij]quinazolin-5(3H)-one] |
| 1.4 | C=CC(=O)N1C[C@H](C)N(c2nc(=O)n3c4c(c(-c5c(O)cccc5F)c(Cl)cc24)OC[C@H]3CN2CCC(F)(F)C2)C[C@H]1C (atropisomer, axis not shown) [Example 222, (3R,10S)-7-((2S,5R)-4-acryloyl-2,5-dimethylpiperazin-1-yl)-9-chloro-3-((3,3-difluoropyrrolidin-1-yl)methyl)-10-(2-fluoro-6-hydroxyphenyl)-2,3-dihydro-5H-[1,4]oxazino[2,3,4-ij]quinazolin-5-one] |
| 91.2 | C=CC(=O)N1C[C@H](C)N(c2nc(=O)n3c4c(c(-c5ccc(F)cc5F)c(Cl)cc24)OC[C@@H]3CCCN2CCOCC2)C[C@H]1C [Example 215, (3S)-7-((2S,5R)-4-acryloyl-2,5-dimethylpiperazin-1-yl)-9-chloro-10-(2,4-difluorophenyl)-3-(3-morpholinopropyl)-2,3-dihydro-5H-[1,4]oxazino[2,3,4-ij]quinazolin-5-one] |
| 97.8 | C=CC(=O)N1C[C@H](C)N(c2nc(=O)n3c4c(c(-c5c(O)cccc5F)c(Cl)cc24)OC[C@@H]3CCCN2CCOCC2)C[C@H]1C (atropisomer, axis not shown) [Example 226, (3S,10S)-7-((2S,5R)-4-acryloyl-2,5-dimethylpiperazin-1-yl)-9-chloro-10-(2-fluoro-6-hydroxyphenyl)-3-(3-morpholinopropyl)-2,3-dihydro-5H-[1,4]oxazino[2,3,4-ij]quinazolin-5-one] |
| 0 | C=CC(=O)N1C[C@H](C)N(c2nc(=O)n3c4c(c(-c5c(O)cccc5F)c(Cl)cc24)OC[C@@H]3CN2CCN(C)CC2)C[C@H]1C (atropisomer, axis not shown) [Example 305, (3S,10R)-7-((2S,5R)-4-acryloyl-2,5-dimethylpiperazin-1-yl)-9-chloro-10-(2-fluoro-6-hydroxyphenyl)-3-((4-methylpiperazin-1-yl)methyl)-2,3-dihydro-5H-[1,4]oxazino[2,3,4-ij]quinazolin-5-one] |
| 79 | C=CC(=O)N1C[C@H](C)N(c2nc(=O)n3c4c(c(-c5ccc(F)cc5F)c(Cl)cc24)OC[C@@H]3COC2CCN(C)C2)C[C@H]1C (stereo in doubt) [Example 336, (3S)-7-((2S,5R)-4-acryloyl-2,5-dimethylpiperazin-1-yl)-9-chloro-10-(2,4-difluorophenyl)-3-((((S)-1-methylpyrrolidin-3-yl)oxy)methyl)-2H-[1,4]oxazino[2,3,4-ij]quinazolin-5(3H)-one] |
